Assay [1] addresses T1, Human baculovirus-expressed tyrosin kinase (TYK) 2 (Homo sapiens, UniProt P29597).
T1 construct: JAK1 (aa 850-1154) and TYK2 (aa 871-1187) are expressed with an N-terminally fused GST-tag; GST (N); purchased Carna Biosciences, Inc 08-147; host or cells: baculovirus expression system
T1 sequence (P29597 871-1187): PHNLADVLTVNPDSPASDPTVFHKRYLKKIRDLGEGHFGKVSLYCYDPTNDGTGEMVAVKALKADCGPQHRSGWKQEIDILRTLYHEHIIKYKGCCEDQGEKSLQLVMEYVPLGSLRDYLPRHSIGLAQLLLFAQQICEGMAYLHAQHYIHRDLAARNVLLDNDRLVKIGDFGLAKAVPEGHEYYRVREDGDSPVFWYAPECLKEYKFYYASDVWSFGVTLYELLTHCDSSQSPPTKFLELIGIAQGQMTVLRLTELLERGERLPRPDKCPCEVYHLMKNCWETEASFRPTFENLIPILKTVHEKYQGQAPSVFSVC
Kind of assay: TYK2 kinase assay (HTRF). It counts as biochemical. The note with it: catalytic domain, ATP at Km (13 μM), 20 min. On the procedure: (§1) Human baculovirus-expressed Janus kinase (JAK) 1, 2, 3 and tyrosin kinase (TYK) 2 were purchased from Carna Biosciences, Inc (#08-144, -045, -046, -147 resp.). All four purified enzymes contain only the catalytic domain. JAK1 (aa 850-1154) and TYK2 (aa 871-1187) are expressed with an N-terminally fused GST-tag, and JAK2 and JAK3 with an N-terminally fused His-tag. Inhibition of phosphorylation of a synthetic peptide was measured in an HTRF-based assay (CisBio #62TKOPEC). First, 75 nL of test compound solution (100% DMSO) was added to a white shallow 384-well plate (NUNC #264706) using a Labcyte ECHO 550 liquid handler. Thereafter, 1 μL of compound dilution buffer (50 mM HEPES, 0.05% bovine serum albumin) and 2 μL of TK solution (TK substrate-biotin in kinase buffer [1× enzymatic buffer from HTRFKinEASE TK kit, 1 mM DTT]) was added. Then, 5 μL kinase-ATP mix (prepared in kinase buffer) was added to the wells and the plates were incubated at RT for 20 (JAK2, 3 and TYK2) to 40 (JAK1) min. For all four kinases a concentration of ATP that corresponded to the Km for ATP was used. The final concentrations of buffers, substrate, kinase and ATP were: JAK1: 50 mM Hepes buffer pH 7.0, 0.01% BSA, 10 mM MgCl2, 1 mM DTT, 7 μM ATP, 50 nM SEB, 1 μM TK Substrate-Biotin and 5 ng JAK1; JAK2: 50 mM Hepes buffer pH 7.0, 0.01% BSA, 5 mM MgCl2, 1 mM DTT, 4 μM ATP, 1 μM TK Substrate-Biotin and 0.1 ng JAK2; JAK3: 50 mM Hepes buffer pH 7.0, 0.01% BSA, 5 mM MgCl2, 1 mM DTT, 2 μM ATP, 1 μM TK Substrate-Biotin and 0.3 ng JAK3; TYK2: 50 mM Hepes buffer pH 7.0, 0.01% BSA, 5 mM MgCl2, 1 mM DTT, 13 μM ATP, 50 nM SEB, 1 μM TK Substrate-Biotin and 0.8 ng TYK2. […] A PerkinElmer Envision reader was used to quantify the HTRF signal using the following filters; 320 nm excitation filter, 665 nm emission filter and a 615 nm 2nd emission filter. A ratio ((665/615)×104) was calculated for each well.
In general terms: Time-resolved FRET reads energy transfer from a long-lived donor to a nearby acceptor.

Assay [2] addresses T2, Human baculovirus-expressed Janus kinase (JAK) 2 (Homo sapiens, UniProt O60674).
T2 construct: All four purified enzymes contain only the catalytic domain; His-tag (N); purchased Carna Biosciences, Inc 08-045; host or cells: baculovirus expression system
Kind of assay: JAK2 kinase assay (HTRF). It counts as biochemical. The conditions noted are these: catalytic domain, ATP at Km (4 μM), 20 min. On the procedure:
as §1

Assay [3] concerns STAT5 irfi-bla TF1 cells. Kind of assay: STAT5 Assay. It counts as cell-based. The note with it: TF-1; stimulated with recombinant human erythropoietin (EPO) 10 ng/mL; beta-lactamase reporter. On the procedure:
Twenty-five μL of a STAT5 irfi-bla TF1 (Invitrogen #K1219) cell suspension was seeded with a density of about 10,000 cells/well in 384-well Black View-plates (PerkinElmer #6007460) with clear bottom in assay medium (Opti-MEM (Invitrogen #11058-021)+0.5% heat inactivated fetal bovine Serum (Invitrogen #10082-147)+1% non-essential amino acids (Invitrogen #11140-050)+1% sodium pyruvate (Invitrogen #11360-070)+1% penicillin/streptomycin (Invitrogen #15140-122)). The cell plates were incubated overnight in a humidified 37° C. air/CO2 (95%/5%) incubator. The following day, 125 nL of solutions of test compounds and reference compounds were transferred to cell plates using the Labcyte Echo 550 liquid handler. The plates were then incubated for 1 h in a humidified 37° C. air/CO2 (95%/5%) incubator. Hereafter recombinant human erythropoietin (EPO) (Invitrogen #PHC9634) was added to the plates also using the Labcyte Echo 550 to a final concentration of 10 ng/mL. The cells were then incubated for 4½-5 h in a humidified 37° C. air/CO2 (95%/5%) incubator. 8 μL of LiveBLAzer substrate mixture (Invitrogen #K1095) were then added to the assay plates, which were then incubated overnight at RT. Fluorescence was then measured: Excitation: 405 nm; Emission: 460 nm (green channel), Emission: 535 nm (blue channel). Background was subtracted in both emission channels and the ratio 460/535 nm was calculated for each well.

Assay [4] concerns STAT6 bla-RA1 cells. Kind of assay: STAT6 Assay. The note with it: stimulated with recombinant human interleukin 4 10 ng/mL; CD40 ligand; beta-lactamase reporter. It counts as cell-based. On the procedure: Twenty-five μL of a STAT6 bla-RA1 (Invitrogen #K1243) cell suspension was seeded with a density of 30-40,000 cells/well in 384-well Black View-plates (PerkinElmer #6007460) with clear bottom in assay medium (Opti-MEM (Invitrogen #11058-021)+0.5% heat inactivated fetal bovine Serum (Invitrogen #10082-147)+1% non-essential amino acids (Invitrogen #11140-050)+1% sodium pyruvate (Invitrogen #11360-070)+1% penicillin/streptomycin (Invitrogen #15140-122)); containing 550 ng/mL of CD40 ligand (Invitrogen #PHP0025). The cell plates were incubated overnight in a humidified 37° C. air/CO2 (95%/5%) incubator. The following day, 125 nL of solutions of test compounds and reference compounds were transferred to cell plates using the Labcyte Echo 550 liquid handler. The plates were then incubated for 1 h in a humidified 37° C. air/CO2 (95%/5%) incubator. Hereafter recombinant human interleukin 4 (Invitrogen #PHC0045) were added to the plates also using the Labcyte Echo 550 to a final concentration of 10 ng/mL. The cells were then incubated for 4½-5 h in a humidified 37° C. air/CO2 (95/b/5%) incubator. 8 μL of LiveBLAzer substrate mixture (Invitrogen #K1095) were then added to the assay plates, which were incubated overnight at RT. Fluorescence was then measured: Excitation: 405 nm; Emission: 460 nm (green channel), Emission: 535 nm (blue channel). Background was subtracted in both emission channels and the ratio 460/535 nm was calculated for each well.

The target in assay [5] is T3, Human baculovirus-expressed Janus kinase (JAK) 1 (Homo sapiens, UniProt P23458).
T3 construct: JAK1 (aa 850-1154) and TYK2 (aa 871-1187) are expressed with an N-terminally fused GST-tag; GST (N); purchased Carna Biosciences, Inc 08-144; host or cells: baculovirus expression system
T3 sequence (P23458 850-1154): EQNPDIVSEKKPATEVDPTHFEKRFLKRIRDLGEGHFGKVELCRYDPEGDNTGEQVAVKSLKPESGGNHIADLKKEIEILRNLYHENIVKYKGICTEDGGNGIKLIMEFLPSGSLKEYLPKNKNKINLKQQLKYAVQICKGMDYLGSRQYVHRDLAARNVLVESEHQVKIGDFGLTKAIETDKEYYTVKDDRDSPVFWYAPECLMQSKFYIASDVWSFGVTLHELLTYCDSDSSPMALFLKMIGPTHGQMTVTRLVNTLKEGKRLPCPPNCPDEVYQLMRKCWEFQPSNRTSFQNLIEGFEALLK
The assay can be described thus: JAK1 kinase assay (HTRF). Type of assay: biochemical. The note with it: catalytic domain, ATP at Km (7 μM), 40 min. On the procedure:
as §1

The target in assay [6] is T4, Human baculovirus-expressed Janus kinase (JAK) 3 (Homo sapiens, UniProt P52333).
T4 construct: All four purified enzymes contain only the catalytic domain; His-tag (N); purchased Carna Biosciences, Inc 08-046; host or cells: baculovirus expression system
T4 sequence (P52333 822-1111 limits assumed): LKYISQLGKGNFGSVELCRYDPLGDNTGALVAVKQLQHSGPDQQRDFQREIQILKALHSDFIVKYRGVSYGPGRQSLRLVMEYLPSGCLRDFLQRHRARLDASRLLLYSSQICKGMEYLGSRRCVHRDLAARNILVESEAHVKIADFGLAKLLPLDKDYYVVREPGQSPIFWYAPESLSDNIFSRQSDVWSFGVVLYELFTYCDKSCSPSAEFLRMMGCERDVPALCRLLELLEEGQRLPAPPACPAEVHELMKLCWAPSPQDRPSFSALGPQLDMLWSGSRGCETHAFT
Kind of assay: JAK3 kinase assay (HTRF). It counts as biochemical. The note with it: catalytic domain, ATP at Km (2 μM), 20 min. On the procedure:
as §1

Our source for the EC50 values is patent US20210269447A1, “NOVEL AMINO-IMIDAZOPYRIMIDINE DERIVATIVES AS JANUS KINASE INHIBITORS AND PHARMACEUTICAL USE THEREOF” (LEO Pharma A/S, priority 2018, published 2021).

T2 sequence (O60674 849-1124 limits assumed): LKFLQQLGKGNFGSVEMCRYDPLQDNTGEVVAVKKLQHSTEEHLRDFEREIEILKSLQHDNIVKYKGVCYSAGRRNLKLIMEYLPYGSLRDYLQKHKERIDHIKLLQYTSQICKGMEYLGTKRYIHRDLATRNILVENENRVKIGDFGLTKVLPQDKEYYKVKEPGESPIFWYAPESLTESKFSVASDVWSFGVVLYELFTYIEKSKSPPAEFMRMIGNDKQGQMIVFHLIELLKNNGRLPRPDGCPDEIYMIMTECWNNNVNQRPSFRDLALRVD

As a reminder, the EC50 is the concentration at which the effect is half-maximal. For `[2H]C([2H])([2H])Nc1ncc2nc([C@@H](C)O)n([C@H]3CC[C@H](CC#N)CC3)c2n1` [Compound 3, 2-[trans-4-[8-[(1R)-1-Hydroxyethyl]-2-(trideuteriomethylamino)purin-9-yl]cyclohexyl]acetonitrile], the EC50 came to 13 nM in assay [1]; 129 nM in assay [2]; 4870 nM in assay [3]; 142 nM in assay [4]; 3 nM in assay [5]; 510 nM in assay [6].
With `CNc1ncc2nc(C(C)O)n([C@H]3CC[C@H](CC#N)CC3)c2n1` (mixture of isomers) [Compound 2, 2-[trans-4-[8-(1-Hydroxyethyl)-2-(methylamino)purin-9-yl]cyclohexyl]acetonitrile], the concentration for a half-maximal effect (EC50) in assay [1] amounted to 47 nM; in assay [2], 274 nM; in assay [3] it was 12800 nM; in assay [4], 213 nM; in assay [5] it was 9 nM; in assay [6] it was 798 nM.
For `CNc1ncc2nc([C@@H](C)O)n([C@H]3CC[C@H](CC#N)CC3)c2n1` [Compound 1, 2-[trans-4-[8-[(1R)-1-Hydroxyethyl]-2-(methylamino)purin-9-yl]cyclohexyl]acetonitrile], the EC50 came to 19 nM in assay [1]; 157 nM in assay [2]; 5190 nM in assay [3]; 146 nM in assay [4]; 5 nM in assay [5]; 602 nM in assay [6].
